The values that follow are results of earlier work, collected in US9532875B2, “Combined space maintenance and bone regeneration system for the reconstruction of large osseous defects” (WILLIAM MARSH RICE UNIVERSITY, priority 2010, dated 2017).

The test system of the data set is susceptible species. The conditions noted are these: reported.

Turning to Colistin sulfate salt, the “minimum inhibitory concentrations (MICs)” value is 0.5 to 5 µg/mL.
